Experimental data: paper PMC8620791, “Inhibitory Effects of Sulfonamide Derivatives on the β-Carbonic Anhydrase (MpaCA) from Malassezia pachydermatis, a Commensal, Pathogenic Fungus Present in Domestic Animals” (International Journal of Molecular Sciences, 2021)

Tests used:
[1] = biological target: T1, β-CA (MpaCA) from Malassezia pachydermatis (Malassezia pachydermatis, UniProt A0A0M8MPA4); assay: biochemical; conditions: recombinant enzyme, stopped-flow CO2 hydration, mean from three assays, errors ±5–10%, 15 min preincubation
T1 sequence (A0A0M8MPA4 1-242): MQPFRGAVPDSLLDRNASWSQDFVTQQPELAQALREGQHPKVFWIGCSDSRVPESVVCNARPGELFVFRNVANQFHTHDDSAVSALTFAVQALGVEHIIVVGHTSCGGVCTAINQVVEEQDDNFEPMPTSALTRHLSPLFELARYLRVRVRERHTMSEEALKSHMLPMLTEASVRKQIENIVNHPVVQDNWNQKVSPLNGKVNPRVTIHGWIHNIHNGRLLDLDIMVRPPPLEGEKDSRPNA
Procedure: An applied photophysics stopped-flow instrument was used for assaying the CA-catalyzed CO2 hydration activity [49].
At least six measurements of the original 5–10% reaction were used to assess the initial velocity for each inhibitor. The uncatalyzed rates were identically determined and detracted from the total observed rates. Stock inhibitor solutions (10–100 mM) were prepared in distilled, deionized water, and dilutions up to 0.01 mM were performed with the buffer test. […] The inhibition constants, which represent the mean from at least three different determinations, were obtained by the non-linear least-squares methods using PRISM 6 and the Cheng–Prusoff equation, as reported earlier [50]. […] All salts/small molecules were of the highest purity available from Sigma-Aldrich (Milan, Italy).

[2] = biological target: MgCA; set-up: method as in PMID 31963335; conditions: stopped-flow CO2 hydration; given for comparison; ref [26]; cited from earlier work
[3] = biological target: MreCA; set-up: method as in PMID 31963335; conditions: stopped-flow CO2 hydration; given for comparison; ref [26]; cited from earlier work

SMILES | Ki [1] [nM] | Ki [2] [nM] | Ki [3] [nM]
CC1(C)O[C@@H]2[C@@H](CO[C@@]3(COS(N)(=O)=O)OC(C)(C)O[C@@H]23)O1 [TPM, Topiramate, reference compound] | 480 | 1460 | 3830
Nc1ccc(S(N)(=O)=O)cc1 [compound 2] | – | 240 | 4620
NS(=O)(=O)NCCNc1nonc1C(=NO)Nc1ccc(F)c(Br)c1 [EPA, Epacadostat, reference compound] | 630 | – | –
NS(=O)(=O)c1cc2c(cc1Cl)NCNS2(=O)=O [HCT, Hydrochlorothiazide, reference compound] | 260 | – | 8500
NS(=O)(=O)c1cc(Cl)cc(Cl)c1O [compound 10] | 2010 | 540 | > 10000
NS(=O)(=O)c1ccc(CO)cc1 [compound 16] | 1060 | 100 | 6510
Cn1nc(S(N)(=O)=O)sc1=N [compound 14] | 580 | > 10000 | > 10000
Nc1ccc(S(=O)(=O)Nc2nnc(S(N)(=O)=O)s2)cc1 [compound 20] | 610 | 230 | 910
Cc1ccc(-c2cc(C(F)(F)F)nn2-c2ccc(S(N)(=O)=O)cc2)cc1 [CLX, Celecoxib, reference compound] | 60 | > 10000 | 1400
NC(N)=Nc1nc(CSCCC(N)=NS(N)(=O)=O)cs1 [FAM, Famotidine, reference compound] | 4910 | – | –
O=C1NS(=O)(=O)c2ccccc21 [SAC, Saccharin, reference compound] | 1030 | – | –
CCN1CCCC1CNC(=O)c1cc(S(N)(=O)=O)ccc1OC (stereo not drawn) [SLP, Sulpiride, reference compound] | – | – | 4850
NS(=O)(=O)c1cccc(S(N)(=O)=O)c1 [compound 3] | 1500 | 150 | > 10000
Cc1onc(-c2ccccc2)c1-c1ccc(S(N)(=O)=O)cc1 [VLX, Valdecoxib, reference compound] | 630 | – | 770
Nc1cc(Cl)c(S(N)(=O)=O)cc1S(N)(=O)=O [compound 12] | 2740 | – | > 10000
Nc1ccc(S(=O)(=O)Nc2ccc(S(N)(=O)=O)cc2)cc1 [compound 22] | 1370 | 90 | 3740
NS(=O)(=O)c1ccc(O)cc1 [compound 15] | 610 | 230 | > 10000
NS(=O)(=O)c1ccc(C(=O)O)cc1 [compound 18] | – | 60 | > 10000
Nc1ccc(S(N)(=O)=O)cc1Br [compound 9] | – | 340 | > 10000
Nc1ccc(S(N)(=O)=O)cc1Cl [compound 8] | 1680 | 120 | > 10000

SMILES | Ki [1] [nM] | Ki [2] [nM] | Ki [3] [nM]
NS(=O)(=O)c1ccc(CCO)cc1 [compound 17] | – | 60 | > 10000
Nc1cc(C(F)(F)F)c(S(N)(=O)=O)cc1S(N)(=O)=O [compound 11] | – | – | 6760
Nc1nnc(S(N)(=O)=O)s1 [compound 13] | 1090 | – | –
Cc1ccc(S(N)(=O)=O)cc1 [compound 4] | 1090 | – | –
NS(=O)(=O)c1ccc(S(=O)(=O)Nc2cccc3c(Cl)c[nH]c23)cc1 [IND, Indisulam E7070, reference compound] | 4820 | – | < 1000
NS(=O)(=O)c1nnc(NS(=O)(=O)c2ccccc2)s1 [BZA, Benzolamide, reference compound] | 120 | – | 7150
Nc1ccc(S(=O)(=O)NCCc2ccc(S(N)(=O)=O)cc2)cc1 [compound 24] | 1270 | – | –
Nc1ccc(S(N)(=O)=O)cc1F [compound 7] | 2480 | 110 | 4590
Nc1cccc(S(N)(=O)=O)c1 [compound 1] | 1990 | – | –
Nc1ccc(S(=O)(=O)NCc2ccc(S(N)(=O)=O)cc2)cc1 [compound 23] | 260 | > 10000 | > 10000
NCCc1ccc(S(N)(=O)=O)cc1 [compound 6] | – | – | > 10000
NS(=O)(=O)c1ccc(N2CCCCS2(=O)=O)cc1 [SLT, Sulthiame, reference compound] | 1880 | – | 670
NS(=O)(=O)c1cc(Cl)c(Cl)c(S(N)(=O)=O)c1 [DCP, Dichlorophenamide, reference compound] | – | 340 | 3060
NS(=O)(=O)c1ccc(CCNS(=O)(=O)c2ccc([N+](=O)[O-])cc2CO)cc1 [compound 21] | 270 | 110 | 7400
NS(=O)(=O)Cc1noc2ccccc12 [ZNS, Zonisamide, reference compound] | 2420 | – | –
Nc1nccc(Nc2ccc(S(N)(=O)=O)cc2)n1 [compound 19] | 590 | > 10000 | 7790
CCN[C@H]1CN(CCCOC)S(=O)(=O)c2sc(S(N)(=O)=O)cc21 [BRZ, Brinzolamide, reference compound] | 550 | > 10000 | 700
NCc1ccc(S(N)(=O)=O)cc1 [compound 5] | 2180 | – | > 10000
CC(=O)/N=c1/sc(S(N)(=O)=O)nn1C [MZA, Methazolamide, reference compound] | 1720 | – | –
